Experimental data taken from patent US20060234323A1, “Luminescent ATP detection with extended linearity” (priority 2005, published 2006).
Where two headings read alike, the source gives them in different places.

Legend:
[1] = target: wild type luciferase from Photinus pyralis (QuantiLum recombinant luciferase) (Photinus pyralis, UniProt P08659); assay type: biochemical
[2] = target: thermostable luciferase (Luc146-1H2) (Photuris pensylvanica, UniProt Q27757); assay type: biochemical, Photuris pennsylvanica
Chain of thermostable luciferase (Luc146-1H2) (Q27757 whole entry): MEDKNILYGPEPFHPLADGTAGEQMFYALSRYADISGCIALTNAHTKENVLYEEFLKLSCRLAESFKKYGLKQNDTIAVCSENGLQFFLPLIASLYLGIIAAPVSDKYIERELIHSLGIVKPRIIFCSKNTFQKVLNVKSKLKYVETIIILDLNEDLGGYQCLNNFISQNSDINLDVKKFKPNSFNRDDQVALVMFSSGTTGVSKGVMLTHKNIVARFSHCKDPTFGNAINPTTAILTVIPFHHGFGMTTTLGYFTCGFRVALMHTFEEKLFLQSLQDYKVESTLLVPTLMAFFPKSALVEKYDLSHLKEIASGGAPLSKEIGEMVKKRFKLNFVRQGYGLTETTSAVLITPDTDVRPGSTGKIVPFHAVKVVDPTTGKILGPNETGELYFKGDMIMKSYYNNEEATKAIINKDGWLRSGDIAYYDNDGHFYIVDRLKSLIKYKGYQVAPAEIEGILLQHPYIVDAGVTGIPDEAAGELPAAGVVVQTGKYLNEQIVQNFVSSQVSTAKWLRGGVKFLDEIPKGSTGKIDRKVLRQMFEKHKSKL

[3] = NT (no inhibitor), metal salt replacing MgSO4, MgSO4 reactions employed NaATP, read-out: ATP Km
[4] = with AMP + PPi, metal salt replacing MgSO4, MgSO4 reactions employed NaATP, read-out: ATP Km
[5] = with AMP, metal salt replacing MgSO4, MgSO4 reactions employed NaATP, read-out: ATP Km
[6] = with PPi, metal salt replacing MgSO4, MgSO4 reactions employed NaATP, read-out: ATP Km
[7] = No PPi, 1 mM AMP, 2 mM 5′AMPS, 2 mM ADP S, 5 mM dATP, ATP 0 to 1.67 mM
[8] = with 50 μM PPi, 1 mM AMP, 2 mM 5′AMPS, 2 mM ADP S, 5 mM dATP, ATP 0 to 1.67 mM

Chain of wild type luciferase from Photinus pyralis (QuantiLum recombinant luciferase) (P08659 whole entry): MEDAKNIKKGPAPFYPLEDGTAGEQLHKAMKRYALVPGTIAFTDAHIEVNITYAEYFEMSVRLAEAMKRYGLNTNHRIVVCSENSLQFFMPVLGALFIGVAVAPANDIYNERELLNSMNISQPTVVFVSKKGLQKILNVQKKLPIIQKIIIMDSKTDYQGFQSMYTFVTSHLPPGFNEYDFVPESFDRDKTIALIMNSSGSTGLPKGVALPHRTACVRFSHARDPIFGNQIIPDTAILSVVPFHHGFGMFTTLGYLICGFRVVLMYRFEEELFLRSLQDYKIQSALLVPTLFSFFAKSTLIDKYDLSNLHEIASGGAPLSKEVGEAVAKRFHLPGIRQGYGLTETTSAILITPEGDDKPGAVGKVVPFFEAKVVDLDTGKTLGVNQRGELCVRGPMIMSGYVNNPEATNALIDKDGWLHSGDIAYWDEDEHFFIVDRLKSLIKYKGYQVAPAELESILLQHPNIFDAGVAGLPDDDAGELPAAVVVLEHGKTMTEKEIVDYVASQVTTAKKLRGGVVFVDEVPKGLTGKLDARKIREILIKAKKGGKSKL

Structure (SMILES) | Km [1, 3] | Km [1, 4] | Km [1, 5] | Km [1, 6] | increase of the luciferase Km for ATP [2] | type of inhibition of luciferase with respect to ATP [2] | Km [2, 7] | Km [2, 8] | further results
O=S(=O)([O-])[O-].[Mg+2] [MgSO4] | 39 µM | 93 µM | 15 µM | 128 µM | – | – | – | – | –
Nc1ncnc2c1ncn2[C@@H]1O[C@H](COP(=O)(O)O)[C@@H](O)[C@H]1O [AMP, adenosine monophosphate] | – | – | – | – | ~10 fold | competitive inhibitors | 109 µM | 1700 µM | Km ([2]; read-out: ATP Km, 1 mM AMP, ATP range 0-1.67 mM): 109 µM; Km ([2]; read-out: Km for ATP, ATP range 0 to 0.09 mM, AMP = 1 mM, PPi = 50 μM, hyperbolic curve fit): 232 µM; Km ([2]; read-out: Km for ATP, ATP range 0 to 0.3 mM, AMP = 1 mM, PPi = 50 μM, hyperbolic curve fit): 243 µM; Km ([2]; read-out: Km for ATP, ATP range 0 to 0.8 mM, AMP = 1 mM, PPi = 50 μM, hyperbolic curve fit): 203 µM; Km ([2]; read-out: Km for ATP, ATP range 0 to 2.5 mM, AMP = 1 mM, PPi = 50 μM, hyperbolic curve fit): 115 µM; decrease in Km ([1]; 3 mM AMP alone, compared to reactions with no PPi or AMP): 65%
Nc1ncnc2c1ncn2[C@@H]1O[C@H](COP(O)(O)=S)[C@@H](O)[C@H]1O [5′AMPS, adenosine 5′-O-thiomonophosphate] | – | – | – | – | ~10 fold | competitive inhibitors | 91 µM | 1070 µM | –
O=P(O)(O)OP(=O)(O)O [PPi] | – | – | – | – | ≤ 2 fold | noncompetitive | – | – | Km ([2]; 50 μM PPi alone (NT row, no adenosine derivative), ATP 0 to 1.67 mM, read-out: Km): 4 µM; Km ([2]; ATP range 0 to 0.09 mM, AMP = 1 mM, PPi = 50 μM, hyperbolic curve fit, read-out: Km for ATP): 6 µM; Km ([2]; ATP range 0 to 0.3 mM, AMP = 1 mM, PPi = 50 μM, hyperbolic curve fit, read-out: Km for ATP): 6 µM; Km ([2]; ATP range 0 to 0.8 mM, AMP = 1 mM, PPi = 50 μM, hyperbolic curve fit, read-out: Km for ATP): 6 µM; Km ([2]; ATP range 0 to 2.5 mM, AMP = 1 mM, PPi = 50 μM, hyperbolic curve fit, read-out: Km for ATP): 5 µM; Km ([1]; 0 mM AMP, 50 μM PPi, ATP 0 to 2.5 mM, MgATP, read-out: Km): 121 µM; Km ([1]; 0 mM AMP, 100 μM PPi, ATP 0 to 2.5 mM, MgATP, read-out: Km): 130 µM; Km ([1]; 0 mM AMP, 200 μM PPi, ATP 0 to 2.5 mM, MgATP, read-out: Km): 146 µM; increase in Km ([1]; 200 μM PPi alone, compared to reactions with no PPi or AMP): 28%; type of inhibition of luciferase with respect to ATP ([1]; native beetle luciferase, in the presence of certain divalent metals): competitive
Nc1ncnc2c1ncn2[C@@H]1O[C@H](COP(=O)(O)OP(O)(O)=S)[C@@H](O)[C@H]1O [ADP S, adenosine 5′-[β-thio] diphosphate] | – | – | – | – | ~10 fold | competitive inhibitors | 93 µM | 581 µM | –
[Cl][Mn][Cl] [MnCl2] | 120 µM | 111 µM | 44 µM | 170 µM | – | – | – | – | –
[Cl][Ni][Cl] [NiCl2] | 906 µM | 1540 µM | 1100 µM | 2420 µM | – | – | – | – | increase of the Km for ATP ([2]; non-Mg metal employed with PPi): about 10 fold
[Ca+2].[Cl-].[Cl-] [CaCl2] | 1910 µM | 1040 µM | 980 µM | 1450 µM | – | – | – | – | –
[Cl-].[Cl-].[Zn+2] [ZnCl2] | 63 µM | 2390 µM | 585 µM | 109 µM | – | – | – | – | –
Nc1ncnc2c1ncn2[C@H]1C[C@H](O)[C@@H](COP(=O)(O)OP(=O)(O)OP(=O)(O)O)O1 [dATP, deoxyadenosine triphosphate] | – | – | – | – | ~10 fold | competitive inhibitors | 127 µM | 232 µM | –
[Cl-].[Cl-].[Mg+2] [MgCl2] | 115 µM | 213 µM | 56 µM | 276 µM | – | – | – | – | –
[Cl-].[Cl-].[Sr+2] [SrCl2] | 373 µM | 2650 µM | 110 µM | 3290 µM | – | – | – | – | –
